Source: patent US10597388B2, “Pyridazinone herbicides” (FMC CORPORATION, priority 2014, dated 2020)

Experiments:
Assay in all cases: Test E greenhouse herbicide test, pre- and postemergence
Format in all cases: in vivo
[1] = tested on: wild poinsettia (Euphorbia heterophylla)
Method in brief: (§1)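 Compounds in a non-phytotoxic solvent mixture with surfactant were applied preemergence to seeds in silt loam soil and postemergence to 2-18 cm plants (1- to 4-leaf stage) in peat-based medium. After 14 to 21 d in a greenhouse, injury was rated visually against untreated controls on a 0 (no effect) to 100 (complete control) scale.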

[2] = tested on: momingglory (Ipomoea coccinea); details: Preemergence
Method in brief: as §1

[3] = tested on: Italian ryegrass (Lolium multiflorum)
Method in brief: as §1

corn (Zea mays) = tested on: corn (Zea mays)
Method in brief: as §1

[4] = tested on: barnyardgrass (Echinochloa crus-galli)
Method in brief: as §1

[5] = tested on: goosegrass (Eleusine indica); details: Preemergence
Method in brief: as §1

[6] = tested on: dayflower (Virginia (VA) dayflower, Commelina virginica)
Method in brief: as §1

[7] = tested on: surinam grass (Brachiaria decumbens); details: Preemergence
Method in brief: as §1

[8] = tested on: crabgrass, large (large crabgrass, Digitaria sanguinalis); details: Preemergence
Method in brief: as §1

[9] = tested on: beggarticks (hairy beggarticks, Bidens pilosa)
Method in brief: as §1

[10] = tested on: panicum, fall (fall panicum, Panicum dichotomiflorum)
Method in brief: as §1

[11] = tested on: field bindweed (Convolvulus arvensis)
Method in brief: as §1

[12] = tested on: nightshade (eastern black nightshade, Solanum ptycanthum); details: Preemergence
Method in brief: as §1

[13] = 62 g ai/ha, Postemergence, scale 0 to 100 (0 no effect, 100 complete control)
[14] = 125 g ai/ha, Postemergence, scale 0 to 100 (0 no effect, 100 complete control)
[15] = 125 g ai/ha, Preemergence, scale 0 to 100 (0 no effect, 100 complete control)
[16] = Postemergence, 16 g ai/ha, visual, scale 0 no effect to 100 complete control
[17] = Postemergence, 31 g ai/ha, visual, scale 0 no effect to 100 complete control
[18] = Preemergence, 16 g ai/ha, scale 0 to 100, 0 no effect, 100 complete control
[19] = Preemergence, 31 g ai/ha, scale 0 to 100, 0 no effect, 100 complete control
[20] = 125 g ai/ha, scale 0 to 100 (0 no effect, 100 complete control)
[21] = 16 g ai/ha, scale 0 to 100, 0 no effect, 100 complete control
[22] = 31 g ai/ha, scale 0 to 100, 0 no effect, 100 complete control
[23] = 62 g ai/ha, Preemergence, scale 0 to 100 (0 no effect, 100 complete control)
[24] = 62 g ai/ha, scale 0 to 100 (0 no effect, 100 complete control)

**Q.** For `CCC(=O)Oc1c(C)nn(C)c(=O)c1-c1c(C)sc2ccc(Cl)cc12` [Compound 109], which “Plant response rating, Poinsettia, Wild” value [1, 13] is on record?
**A.** The value was 45.

**Q.** What about the “Plant response rating, Poinsettia, Wild” value [1, 14] of the same molecule?
**A.** The value was 50.

**Q.** What about the “Plant response rating, Poinsettia, Wild” value [1, 15] of the same molecule?
**A.** The value was 30.

**Q.** What about the “Plant response rating, Poinsettia, Wild” value [1, 16] of the same molecule?
**A.** The value was 0.

**Q.** What about the “Plant response rating, Poinsettia, Wild” value [1, 17] of the same molecule?
**A.** The value was 25.

**Q.** And the “Plant response rating, Poinsettia, Wild” value [1, 18]?
**A.** The value was 10.

**Q.** And the “Plant response rating, Poinsettia, Wild” value [1, 19]?
**A.** The value was 10.

**Q.** What about the “Plant response rating, Poinsettia, Wild” value ([1]; Preemergence, scale 0 to 100, 0 no effect, 100 complete control) of the same molecule?
**A.** The value was 25.

**Q.** What about the “Plant response rating, Morningglory” value [2, 20] of the same molecule?
**A.** Its value is 65.

**Q.** And the “Plant response rating, Morningglory” value [2, 21]?
**A.** Its value is 0.

**Q.** What about the “Plant response rating, Morningglory” value [2, 22] of the same molecule?
**A.** Its value is 0.

**Q.** What about the “Plant response rating, Ryegrass, Italian” value [3, 13] of the same molecule?
**A.** Its value is 90.

**Q.** What about the “Plant response rating, Ryegrass, Italian” value [3, 14] of the same molecule?
**A.** Its value is 85.

**Q.** And the “Plant response rating, Ryegrass, Italian” value [3, 15]?
**A.** The value was 98.

**Q.** What about the “Plant response rating, Ryegrass, Italian” value [3, 16] of the same molecule?
**A.** Its value is 50.

**Q.** And the “Plant response rating, Ryegrass, Italian” value [3, 17]?
**A.** Its value is 75.

**Q.** What about the “Plant response rating, Ryegrass, Italian” value [3, 18] of the same molecule?
**A.** Its value is 60.

**Q.** And the “Plant response rating, Ryegrass, Italian” value [3, 19]?
**A.** The value was 75.

**Q.** What about the “Plant response rating, Corn” value (corn (Zea mays); [13]) of the same molecule?
**A.** The value was 10.

**Q.** What about the “Plant response rating, Corn” value (corn (Zea mays); [23]) of the same molecule?
**A.** Its value is 0.

**Q.** And the “Plant response rating, Corn” value (corn (Zea mays); [14])?
**A.** The value was 20.

**Q.** What about the “Plant response rating, Corn” value (corn (Zea mays); [15]) of the same molecule?
**A.** The value was 0.

**Q.** What about the “Plant response rating, Corn” value (corn (Zea mays); [16]) of the same molecule?
**A.** The value was 0.

**Q.** What about the “Plant response rating, Corn” value (corn (Zea mays); [17]) of the same molecule?
**A.** Its value is 0.

**Q.** And the “Plant response rating, Corn” value (corn (Zea mays); [18])?
**A.** Its value is 0.

**Q.** What about the “Plant response rating, Corn” value (corn (Zea mays); [19]) of the same molecule?
**A.** The value was 0.

**Q.** What about the “Plant response rating, Barnyardgrass” value [4, 13] of the same molecule?
**A.** Its value is 30.

**Q.** What about the “Plant response rating, Barnyardgrass” value [4, 23] of the same molecule?
**A.** Its value is 10.

**Q.** And the “Plant response rating, Barnyardgrass” value [4, 14]?
**A.** Its value is 40.

**Q.** What about the “Plant response rating, Barnyardgrass” value [4, 15] of the same molecule?
**A.** Its value is 25.

**Q.** What about the “Plant response rating, Barnyardgrass” value [4, 16] of the same molecule?
**A.** Its value is 25.

**Q.** What about the “Plant response rating, Barnyardgrass” value [4, 17] of the same molecule?
**A.** The value was 30.

**Q.** What about the “Plant response rating, Barnyardgrass” value [4, 18] of the same molecule?
**A.** The value was 0.

**Q.** And the “Plant response rating, Barnyardgrass” value [4, 19]?
**A.** Its value is 0.

**Q.** And the “Plant response rating, Goosegrass” value [5, 24]?
**A.** Its value is 25.

**Q.** And the “Plant response rating, Goosegrass” value [5, 20]?
**A.** Its value is 50.

**Q.** And the “Plant response rating, Goosegrass” value [5, 21]?
**A.** The value was 0.

**Q.** And the “Plant response rating, Goosegrass” value [5, 22]?
**A.** Its value is 20.

**Q.** And the “Plant response rating, Dayflower, VA” value [6, 13]?
**A.** Its value is 50.

**Q.** What about the “Plant response rating, Dayflower, VA” value [6, 23] of the same molecule?
**A.** Its value is 25.

**Q.** And the “Plant response rating, Dayflower, VA” value [6, 14]?
**A.** The value was 60.

**Q.** What about the “Plant response rating, Dayflower, VA” value [6, 15] of the same molecule?
**A.** The value was 25.

**Q.** What about the “Plant response rating, Dayflower, VA” value [6, 16] of the same molecule?
**A.** The value was 30.

**Q.** And the “Plant response rating, Dayflower, VA” value [6, 17]?
**A.** Its value is 30.

**Q.** And the “Plant response rating, Dayflower, VA” value [6, 18]?
**A.** The value was 0.

**Q.** What about the “Plant response rating, Dayflower, VA” value [6, 19] of the same molecule?
**A.** The value was 25.

**Q.** And the “Plant response rating, Surinam Grass” value [7, 20]?
**A.** The value was 40.

**Q.** And the “Plant response rating, Surinam Grass” value [7, 21]?
**A.** The value was 0.

**Q.** And the “Plant response rating, Surinam Grass” value [7, 22]?
**A.** Its value is 30.

**Q.** What about the “Plant response rating, Crabgrass, Large” value [8, 24] of the same molecule?
**A.** Its value is 40.

**Q.** What about the “Plant response rating, Crabgrass, Large” value [8, 20] of the same molecule?
**A.** Its value is 35.

**Q.** What about the “Plant response rating, Crabgrass, Large” value [8, 21] of the same molecule?
**A.** Its value is 0.

**Q.** What about the “Plant response rating, Crabgrass, Large” value [8, 22] of the same molecule?
**A.** The value was 0.

**Q.** And the “Plant response rating, Beggarticks” value [9, 13]?
**A.** Its value is 85.

**Q.** What about the “Plant response rating, Beggarticks” value [9, 23] of the same molecule?
**A.** Its value is 100.

**Q.** What about the “Plant response rating, Beggarticks” value [9, 14] of the same molecule?
**A.** Its value is 100.

**Q.** What about the “Plant response rating, Beggarticks” value [9, 15] of the same molecule?
**A.** The value was 100.

**Q.** What about the “Plant response rating, Beggarticks” value [9, 16] of the same molecule?
**A.** Its value is 80.

**Q.** What about the “Plant response rating, Beggarticks” value [9, 17] of the same molecule?
**A.** The value was 90.

**Q.** What about the “Plant response rating, Beggarticks” value [9, 18] of the same molecule?
**A.** The value was 20.

**Q.** And the “Plant response rating, Beggarticks” value [9, 19]?
**A.** The value was 75.

**Q.** What about the “Plant response rating, Panicum, Fall” value [10, 13] of the same molecule?
**A.** The value was 65.

**Q.** What about the “Plant response rating, Panicum, Fall” value [10, 14] of the same molecule?
**A.** The value was 80.

**Q.** And the “Plant response rating, Panicum, Fall” value [10, 15]?
**A.** The value was 95.

**Q.** And the “Plant response rating, Panicum, Fall” value [10, 16]?
**A.** The value was 50.

**Q.** And the “Plant response rating, Panicum, Fall” value [10, 17]?
**A.** Its value is 60.

**Q.** What about the “Plant response rating, Panicum, Fall” value [10, 18] of the same molecule?
**A.** Its value is 75.

**Q.** What about the “Plant response rating, Panicum, Fall” value [10, 19] of the same molecule?
**A.** Its value is 80.

**Q.** What about the “Plant response rating, Field Bindweed” value [11, 13] of the same molecule?
**A.** The value was 95.

**Q.** What about the “Plant response rating, Field Bindweed” value [11, 23] of the same molecule?
**A.** Its value is 40.

**Q.** What about the “Plant response rating, Field Bindweed” value [11, 14] of the same molecule?
**A.** Its value is 90.

**Q.** What about the “Plant response rating, Field Bindweed” value [11, 15] of the same molecule?
**A.** The value was 80.

**Q.** What about the “Plant response rating, Field Bindweed” value [11, 16] of the same molecule?
**A.** The value was 75.

**Q.** What about the “Plant response rating, Field Bindweed” value [11, 17] of the same molecule?
**A.** Its value is 80.

**Q.** And the “Plant response rating, Field Bindweed” value [11, 18]?
**A.** Its value is 0.

**Q.** What about the “Plant response rating, Field Bindweed” value [11, 19] of the same molecule?
**A.** Its value is 0.

**Q.** What about the “Plant response rating, Nightshade” value [12, 20] of the same molecule?
**A.** Its value is 98.

**Q.** What about the “Plant response rating, Nightshade” value [12, 21] of the same molecule?
**A.** Its value is 25.

**Q.** What about the “Plant response rating, Nightshade” value [12, 22] of the same molecule?
**A.** The value was 65.
